# Assay results from publication PMC8597757, “Pharmacokinetic and Safety Profile of the Novel HIV Nonnucleoside Reverse Transcriptase Inhibitor MK-8507 in Adults without HIV” (Antimicrobial Agents and Chemotherapy, 2021).
# Entries after “also recorded” stand apart in the source; their conditions may differ. Where two headings read alike, the source gives them in different places.
# What was measured:
# [1] = Single-dose plasma pharmacokinetics of MK-8507 (suspension, study 1; tablet, study 2); format: in vivo; conditions: human; for Cmax: n=6, read-out: Cmax (geometric mean [95% CI]); for AUC(0-t): n=6, read-out: AUC0–168 (geometric mean [95% CI]); for concentration at 168 h: n=6, read-out: C168hr (geometric mean [95% CI])
# Procedure: Study 1 was a 4-period, alternating panel (A and B), rising single-dose trial. Participants in each panel were randomized to receive single rising doses of MK-8507 (n = 6 per panel) or placebo (n = 2 per panel) as an oral suspension. All study drugs were administered after an overnight fast, except in period 4. […] There was a minimum 20-day washout interval between doses within each panel and a 10-day interval between each dosing period. […] MK-8507 in plasma was extracted by protein precipitation and analyzed by reversed-phase chromatographic separation coupled with tandem mass spectrometric detection by Merck & Co., Inc. (West Point, PA, USA). The liquid chromatography-tandem mass spectrometric (LC-MS/MS) system consisted of a Waters Acquity ultraperformance liquid chromatography system (Waters Corporation, Milford, MA, USA) employing a turbo ionspray interface in the negative ion mode. The lower limit of quantitation was 1.0 ng/mL (2.03 nM) with a linear calibration range from 1.0 to 1000 ng/mL. The mean intrarun accuracy was 94.8 to 113% (precision, ≤6.2% coefficient of variation [CV]), and the mean interrun accuracy was 94.4 to 103.0% (precision, ≤8.6% CV). […] Statistical analyses were performed using SAS software version 9.3 (SAS Institute Inc., Cary, NC, USA). […] The least-squares geometric mean (GM) and corresponding 95% CIs obtained from the models were exponentiated to provide estimates for the population GMs and CIs on the original scales.
# [2] = Dose proportionality assessment of single oral doses 2 to 1,200 mg; format: in vivo, human
# From the text: The AUC0-168hr and […] group was not statistically significant at the 0.05 level and was therefore omitted from the final model. An overall slope was estimated across all groups.
# [3] = Cross-study formulation comparison, 400 mg tablet vs suspension; format: in vivo, human
# Procedure: Statistical analyses were performed using SAS software version 9.3 (SAS Institute Inc., Cary, NC, USA). […] The least-squares geometric mean (GM) and corresponding 95% CIs obtained from the models were exponentiated to provide estimates for the population GMs and CIs on the original scales. To assess the effect of food, 90% CIs were calculated for the GMR (fed/fasted) of MK-8507 AUC0-∞, Cmax, and C168hr. […] The point estimates and the corresponding 95% CIs were obtained from the model for GM of each formulation; the GMR and 90% CIs comparing tablet to suspension were estimated using the model.
# [4] = Safety and tolerability in phase 1 studies; format: in vivo, human
# Procedure: The safety and tolerability of MK-8507 were assessed by clinical evaluation, including vital signs, 12-lead electrocardiograms, laboratory safety tests, and clinical monitoring of AEs.
# [5] = test system: HIV-1; assay: PK target of Ctrough >=6 x IC50 (in vitro potency); conditions: Human immunodeficiency virus 1; Ctrough target expected to achieve antiviral efficacy; meta-analysis ref 20; read-out: 6 × IC50 threshold (PK target for C168hr)
# Procedure: The plasma PK profile of MK-8507 is supportive of QW administration. Following oral administration, MK-8507 is readily absorbed, with a Tmax of ∼2 to 7 h followed by a biphasic decline in plasma concentration. […] Concentration at trough is the PK parameter generally associated with antiviral efficacy of HIV treatment ([20][–][23]). Based on a meta-analysis of Ctrough normalized by in vitro potency and viral load data from other NNRTIs ([20]), a PK target of Ctrough ≥6 × 50% inhibitory concentration (IC50) is a threshold expected to achieve antiviral efficacy as part of combination therapy. […] These PK results support further development of MK-8507 as a QW oral agent for treatment of HIV administered as part of a complete treatment regimen together with islatravir.
# [6] = Single-dose plasma pharmacokinetics of MK-8507 (suspension, study 1; tablet, study 2); format: in vivo; conditions: human, fasted; for AUC(0-inf): n=6, read-out: AUC0-∞ (geometric mean [95% CI]); for AUC(0-t): n=6, read-out: AUC0–168 (geometric mean [95% CI]); for half-life: n=6, read-out: Apparent terminal t½ (geometric mean [%GVC]) (converted); for concentration at 168 h: n=6, read-out: C168hr (geometric mean [95% CI]); for Cmax: n=6, read-out: Cmax (geometric mean [95% CI])
# [7] = test system: CYP3A4; conditions: preclinical in vitro studies, no reference given; cited from earlier work
# [8] = test system: common NNRTI resistance-associated variants; conditions: cited from earlier work
# [9] = po, 30 mg, single oral dose 30 mg, suspension, fasted
# [10] = po, 400 mg, single oral dose 400 mg, suspension, fasted
# [11] = po, 2 mg, single oral dose 2 mg, suspension
# [12] = po, 10 mg, single oral dose 10 mg, suspension
# [13] = po, 30 mg, single oral dose 30 mg, suspension
# [14] = po, 100 mg, single oral dose 100 mg, suspension
# [15] = po, 200 mg, single oral dose 200 mg, suspension
# [16] = po, 400 mg, single oral dose 400 mg, suspension
# [17] = po, 400 mg, single oral dose 400 mg, tablet
# [18] = po, 800 mg, single oral dose 800 mg, tablet
# [19] = po, 1200 mg, single oral dose 1,200 mg, tablet
compound,measurement,setting,value
N#Cc1cc(Cl)cc(Oc2c(C(F)(F)F)ncn(Cc3cc(C(F)(F)F)c(=O)[nH]n3)c2=O)c1 [MK-8507],half-life,"[1]; oral, overall, discussion, read-out: terminal t½ (converted)",~70 h
same,half-life,"[1]; oral, single doses 2 to 1,200 mg, range across doses, read-out: mean terminal half-life (t1/2)",58 to 84 h
same,half-life,"[1]; oral, some participants, 336 h of PK sampling, read-out: t1/2 in some participants",> 100 h
same,Tmax,"[1]; oral, suspension, fasted, range across doses, read-out: median Tmax",2 to 4 h
same,Cmax,"[1]; po, 2 mg, single oral dose 2 mg, suspension, fasted",50 nM
same,AUC(0-inf),"[1]; po, 10 mg, single oral dose 10 mg, suspension, fasted, n=6, read-out: AUC0-∞ (geometric mean [95% CI])",15.2 µM·h
same,Cmax,"[1]; po, 10 mg, single oral dose 10 mg, suspension, fasted",220 nM
same,AUC(0-t),[1]; [9],39.7 µM·h
same,concentration at 168 h,[1]; [9],100 nM
same,Tmax,"[1]; po, 30 mg, single oral dose 30 mg, suspension, fasted, n=6, read-out: Tmax (median [min, max])",2 h
same,Tmax,"[1]; po, 100 mg, single oral dose 100 mg, suspension, fasted, n=6, read-out: Tmax (median [min, max])",2.04 h
same,AUC(0-t),"[1]; po, 200 mg, single oral dose 200 mg, suspension, fasted",287 µM·h
same,concentration at 168 h,[1]; [10],1300 nM
same,Cmax,[1]; [10],11500 nM
same,Tmax,"[1]; po, oral doses across both studies, suspension or tablet, read-out: time to maximum concentration (Tmax)",2 to 7 h
same,dose proportionality of pharmacokinetics,"[2]; 2 to 1,200 mg",increased dose proportionally; also recorded: approximately dose proportional
same,"Estimate of slope, C168hr as a function of dose","[2]; single oral doses of 2 to 1,200 mg, ln-ln linear mixed-effect model",0.9932
same,"reduction of Cmax, tablet compared to suspension",[3]; 400-mg dose,21%
same,"GMR (90% CI) tablet/suspension, C168hr",[3]; 400-mg single dose,"0.93 (0.66, 1.29)"
same,"changes in clinical laboratory assessments, vital signs, electrocardiograms",[4]; both studies,no clinically meaningful changes; also recorded: No clinically meaningful relationships were observed
same,discontinuation due to an adverse experience,[4]; both studies,no participants discontinued
same,seriousness and intensity of adverse events,[4]; both studies,nonserious and mild in intensity
same,tolerability,[4]; single and multiple QW doses,generally well tolerated
same,participants with cough,[4]; study 1,3
same,participants with headache,[4]; study 1,4
same,participants with myalgia,[4]; study 1,2
same,participants with rhinorrhea,[4]; study 1,2
same,AEs considered related to MK-8507,"[4]; study 1, single dose",none
same,total nonserious AEs,"[4]; study 1, single oral dose of MK-8507",38
same,AEs considered related to MK-8507,"[4]; study 2, multiple doses",none
same,total nonserious AEs,"[4]; study 2, multiple doses of MK-8507",13
same,AEs considered related to MK-8507,"[4]; study 2, single doses (decreased appetite)",One
same,total nonserious AEs,"[4]; study 2, single doses of MK-8507",10
same,IC50,[5],0.148 µg/mL
same,PK target concentration for C168hr (6 × IC50),[5],300 nM
same,Tmax,"[6]; oral, tablet, range across doses, read-out: median Tmax",4 to 7 h
same,AUC(0-inf),[6]; [11],3.82 µM·h
same,AUC(0-t),[6]; [11],2.94 µM·h
same,half-life,[6]; [11],82.9 h
same,concentration at 168 h,[6]; [11],10 nM
same,Tmax,"[6]; po, 2 mg, single oral dose 2 mg, suspension, n=6, read-out: Tmax (median [min, max])",2 h
same,AUC(0-t),[6]; [12],11.9 µM·h
same,half-life,[6]; [12],82 h
same,concentration at 168 h,[6]; [12],30 nM
same,Tmax,"[6]; po, 10 mg, single oral dose 10 mg, suspension, n=6, read-out: Tmax (median [min, max])",2 h
same,AUC(0-inf),[6]; [13],52 µM·h
same,half-life,[6]; [13],77.7 h
same,Cmax,[6]; [13],790 nM
same,AUC(0-inf),[6]; [14],175 µM·h
same,AUC(0-t),[6]; [14],139 µM·h
same,half-life,[6]; [14],75.9 h
same,concentration at 168 h,[6]; [14],300 nM
same,Cmax,[6]; [14],2580 nM
same,AUC(0-inf),[6]; [15],374 µM·h
same,half-life,[6]; [15],83.5 h
same,concentration at 168 h,[6]; [15],680 nM
same,Cmax,[6]; [15],5400 nM
same,Tmax,"[6]; po, 200 mg, single oral dose 200 mg, suspension, n=6, read-out: Tmax (median [min, max])",2.02 h
same,AUC(0-inf),[6]; [16],770 µM·h
same,AUC(0-t),[6]; [16],619 µM·h
same,half-life,[6]; [16],69.1 h
same,Tmax,"[6]; po, 400 mg, single oral dose 400 mg, suspension, n=6, read-out: Tmax (median [min, max])",4 h
same,AUC(0-inf),[6]; [17],710 µM·h
same,AUC(0-t),[6]; [17],606 µM·h
same,half-life,[6]; [17],58.3 h
same,concentration at 168 h,[6]; [17],1280 nM
same,Cmax,[6]; [17],9090 nM
same,Tmax,"[6]; po, 400 mg, single oral dose 400 mg, tablet, n=6, read-out: Tmax (median [min, max])",7 h
same,AUC(0-inf),[6]; [18],1230 µM·h
same,AUC(0-t),[6]; [18],989 µM·h
same,half-life,[6]; [18],70.9 h
same,concentration at 168 h,[6]; [18],2100 nM
same,Cmax,[6]; [18],15400 nM
same,Tmax,"[6]; po, 800 mg, single oral dose 800 mg, tablet, n=6, read-out: Tmax (median [min, max])",4 h
same,AUC(0-inf),[6]; [19],1920 µM·h
same,AUC(0-t),[6]; [19],1570 µM·h
same,half-life,[6]; [19],68.7 h
same,concentration at 168 h,[6]; [19],3590 nM
same,Cmax,[6]; [19],23600 nM
same,Tmax,"[6]; po, 1200 mg, single oral dose 1,200 mg, tablet, n=6, read-out: Tmax (median [min, max])",5 h
same,induction of CYP3A4 expression in vitro,[7],demonstrated the potential to induce expression of CYP3A4
same,in vitro activity against common NNRTI resistance-associated variants,[8],demonstrated in vitro activity
